Consider four compounds from PMC4406157, “Irreversible endo-Selective Diels–Alder Reactions of Substituted Alkoxyfurans: A General Synthesis of endo-Cantharimides” (Chemistry (Weinheim an Der Bergstrasse, Germany), 2015).

Data set [1] addresses KCNH2 (human Ether-à-go-go-Related Gene) (Homo sapiens, UniProt Q12809). In words: KCNH2 (hERG) Human Antagonist Barracuda Electrophysiology Population Patch Clamp. The class given is cell-based. The following applies: read-out: IC50 hERG receptor (KCNH2 antagonist). From the text:
(§1) An important challenge for drug development is the generation of novel heterocyclic building blocks with suitable properties for use in screening and medicinal chemistry programs.[34] The cantharimides accessed using this methodology have appropriate physicochemical properties for lead-like compounds, including lipophilicity,[35] molecular weight and polar surface area[36] (Figure 3). Another attractive feature of these scaffolds is the high proportion of sp^3-hybridized carbon atoms, which is typically associated with improved protein binding selectivity and frequency, better solubility and a reduced chance of off-target effects.[37] Indeed, cantharimides 7, 10, endo-3 f and exo-3 f were screened against the hERG receptor (IC50>50 μM) and the aryl hydrocarbon receptor (EC50>100 μM), which are responsible for common off target effects, and no affinity was observed.
Compound Assay Parameter Value/µM
endo-3f KCNH2 (human Ether -à-go-go-Related Gene) Human Antagonist IC50 >50 […]
(§2) (1 picture or pasted object on this page, not shown here)

The target of data set [2] is T1, Aryl Hydrocarbon Receptor (AhR) (Homo sapiens, UniProt P35869).
T1 construct: LS180 CYP1A1 FRET; endogenous in cells; host or cells: LS180
T1 sequence (P35869 11-848): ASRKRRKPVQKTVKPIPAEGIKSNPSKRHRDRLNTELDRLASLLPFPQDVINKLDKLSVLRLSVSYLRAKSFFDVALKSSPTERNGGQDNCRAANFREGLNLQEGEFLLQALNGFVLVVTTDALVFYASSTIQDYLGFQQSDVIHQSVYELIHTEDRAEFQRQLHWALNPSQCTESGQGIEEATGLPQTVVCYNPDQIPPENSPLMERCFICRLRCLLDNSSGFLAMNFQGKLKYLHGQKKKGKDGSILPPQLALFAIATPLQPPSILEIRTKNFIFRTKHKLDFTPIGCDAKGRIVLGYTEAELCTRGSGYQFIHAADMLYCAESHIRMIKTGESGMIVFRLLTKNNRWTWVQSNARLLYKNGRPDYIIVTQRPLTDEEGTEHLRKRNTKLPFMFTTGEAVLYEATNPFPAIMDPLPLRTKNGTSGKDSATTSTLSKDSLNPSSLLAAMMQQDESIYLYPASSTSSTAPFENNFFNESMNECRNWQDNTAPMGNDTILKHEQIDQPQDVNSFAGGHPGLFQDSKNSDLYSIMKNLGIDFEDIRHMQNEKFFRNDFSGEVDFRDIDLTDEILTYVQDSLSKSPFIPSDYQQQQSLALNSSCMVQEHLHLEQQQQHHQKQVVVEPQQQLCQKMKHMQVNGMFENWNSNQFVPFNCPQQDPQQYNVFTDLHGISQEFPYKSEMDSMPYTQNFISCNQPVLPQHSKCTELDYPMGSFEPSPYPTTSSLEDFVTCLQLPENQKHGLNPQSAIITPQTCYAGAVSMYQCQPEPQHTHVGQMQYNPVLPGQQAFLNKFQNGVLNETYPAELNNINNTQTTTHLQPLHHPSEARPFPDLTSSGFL
As to the kind of experiment: Aryl Hydrocarbon Receptor (AhR) Human LS180 CYP1A1 FRET. The following applies: LS180 cells. The data set is classed as cell-based.
Text: as §1, with “observed. […]” for “observed.”
endo-3f Aryl Hydrocarbon Receptor (AhR) Human LS180 CYP1A1 FRET - EC50 >100
exo-3f Aryl Hydrocarbon Receptor (AhR) Human LS180 CYP1A1 FRET - EC50 >100
7 Aryl Hydrocarbon Receptor (AhR) Human LS180 CYP1A1 FRET - EC50 >100
10 Aryl Hydrocarbon Receptor (AhR) Human LS180 CYP1A1 FRET - EC50 >100
as §2

Data set [3] in a line: in vitro clearance in the presence of human microsomes. The data set is classed as in vitro ADME. The following applies: IVC testing performed by Cyprotex.
Text: as §1
[38] IVC testing performed by Cyprotex, 15 Beech Lane, Macclesfield, Cheshire, SK10 2DR, UK

KCNH2 (human Ether-à-go-go-Related Gene), sequence (Q12809 whole entry): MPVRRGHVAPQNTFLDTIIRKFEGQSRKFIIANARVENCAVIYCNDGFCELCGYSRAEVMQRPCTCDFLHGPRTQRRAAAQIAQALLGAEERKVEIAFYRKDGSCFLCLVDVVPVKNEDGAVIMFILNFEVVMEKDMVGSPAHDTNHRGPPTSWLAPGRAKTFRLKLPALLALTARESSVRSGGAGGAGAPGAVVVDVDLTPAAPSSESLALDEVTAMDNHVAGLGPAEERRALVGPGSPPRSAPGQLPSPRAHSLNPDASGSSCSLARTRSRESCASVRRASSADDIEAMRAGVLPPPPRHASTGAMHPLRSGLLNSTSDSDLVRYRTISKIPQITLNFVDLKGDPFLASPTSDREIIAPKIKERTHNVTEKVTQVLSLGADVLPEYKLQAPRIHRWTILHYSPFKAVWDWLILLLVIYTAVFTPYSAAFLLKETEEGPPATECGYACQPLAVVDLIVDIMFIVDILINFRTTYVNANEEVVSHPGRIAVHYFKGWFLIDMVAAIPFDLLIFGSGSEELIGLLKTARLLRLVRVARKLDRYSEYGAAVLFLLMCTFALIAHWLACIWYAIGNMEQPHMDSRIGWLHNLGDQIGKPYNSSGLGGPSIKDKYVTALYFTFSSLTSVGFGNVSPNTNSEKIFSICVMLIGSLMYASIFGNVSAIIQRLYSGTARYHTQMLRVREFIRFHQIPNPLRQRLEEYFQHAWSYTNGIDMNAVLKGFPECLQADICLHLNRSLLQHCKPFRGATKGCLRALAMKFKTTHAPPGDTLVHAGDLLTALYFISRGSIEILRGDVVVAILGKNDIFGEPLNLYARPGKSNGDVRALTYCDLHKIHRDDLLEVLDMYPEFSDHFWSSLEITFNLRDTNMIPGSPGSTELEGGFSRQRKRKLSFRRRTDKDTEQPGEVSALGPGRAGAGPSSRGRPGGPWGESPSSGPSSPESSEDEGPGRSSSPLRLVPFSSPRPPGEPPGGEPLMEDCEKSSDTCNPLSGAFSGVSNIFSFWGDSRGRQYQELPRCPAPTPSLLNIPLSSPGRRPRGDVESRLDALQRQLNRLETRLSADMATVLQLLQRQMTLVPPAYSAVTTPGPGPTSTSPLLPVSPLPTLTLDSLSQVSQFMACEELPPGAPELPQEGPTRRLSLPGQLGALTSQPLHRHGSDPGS

For the compound `CCOC1CC2OC1(c1ccccc1)C1C(=O)N(C)C(=O)C21` (stereo not drawn) [compound 7], in data set [1], the IC50 is > 50 µM. Besides, in data set [2], the EC50 was > 100 µM.
As for `CN1C(=O)C2C3CC(O)C(c4ccccc4)(O3)C2C1=O` (stereo not drawn) [compound 10], the in vitro clearance in data set [3] was < 0.53 mL/min/g. Besides, the IC50 in data set [1] is > 50 µM. Moreover, the EC50 in data set [2] is > 100 µM.
Regarding `CCOC1=CC2OC1(c1ccccc1)C1C(=O)N(C)C(=O)C21` (stereo not drawn) [endo-3 f], the IC50 in data set [1] was > 50 µM. Further, the EC50 in data set [2] was > 100 µM.
The like results for `CCOC1=C[C@H]2O[C@]1(c1ccccc1)[C@@H]1C(=O)N(C)C(=O)[C@@H]12` [exo-3 f] were, in that order, > 50 µM and > 100 µM.
